Data published in patent US20100056606A1, “Combination therapy using budesonide and antisense oligonucleotide targeted to IL4-receptor alpha” (ISIS Pharmaceuticals, Inc., priority 2005, published 2010).

Assays:
OVA sensitized mice [1] = experiment: Mouse model of allergic inflammation, rechallenge model (AHR/Penh, BAL eosinophils, cytokines); assay type: in vivo
Experimental: (§1) In the mouse model of allergic inflammation, mice are sensitized and challenged with aerosolized chicken ovalbumin (OVA). Airway responsiveness is assessed by inducing airflow obstruction using a noninvasive method whereby unrestrained conscious OVA sensitized mice are placed into the main chamber of a plethysmograph (Buxco Electronics, Inc. Troy, N.Y.) and challenged with aerosolized methacholine. Pressure difference between this chamber and a reference chamber is used to extrapolate minute volume, breathing frequency and enhanced pause (Penh). Penh is a dimensionless parameter that is a function of total pulmonary airflow (i.e. the sum of the airflow in the upper and lower respiratory tracts) during the respiratory cycle of a mouse and is […] when airflow is greater. This parameter closely correlates with lung resistance as measured by traditional, invasive techniques using ventilated animals (Hamelmann et al., 1997, Am. J. Respir. Crit. Care Med. 156:766-775).
The rechallenge model of allergic inflammation includes a second series of nebulized OVA challenges on days 66 and 67 in addition to the sensitization and challenge steps of the acute model. This model allows for the evaluation of the target's role in a recall response, as opposed to its role as an initiator molecule. In the rechallenge model, mice were treated with 10, 100 or 500 μg/kg of either ISIS 231894 or the mismatch control oligonucleotide on days 52, 54, 56, 59 and 61, subsequent to the onset and resolution of the OVA-induced acute inflammatory response, delivered by nose only inhalation. The study endpoints were similar to those in the acute model, and included Penh response (i.e. AHR reduction), inflammatory cells and cytokines in BAL (determined by ELISA), mucus accumulation (as determined by periodic acid-Schiff base [PAS] staining in lungs), lung histology and IL-4R alpha protein reduction in lung epithelial and inflammatory cells (as determined by flow cytometry). The results are shown below in Tables 5 and 6.

OVA sensitized mice [2] = experiment: Mouse model of allergic inflammation, chronic model (Penh, BAL cells, cytokines); assay type: in vivo; conditions: for % Eosinophils (BAL) / % Neutrophils (BAL): day 76
Experimental: as §1
In the chronic model of allergic inflammation, mice are subjected to repeated intranasal OVA administration, producing a chronic inflammatory response. In this model, mice were sensitized by intraperitoneal injection with 100 μg of OVA on days 0 and 14 as in the previous models. OVA was administered at a dose of 500 μg on days 14, 27, 28, 29, 47, 61, 73, 74 and 75. Oligonucleotide, either ISIS 231894 or the mismatch control, was administered via the nose-only aerosol delivery exposure system at a dose of either 5 μg/kg or 500 μg/kg on days 31, 38, 45, 52, 59, 66 and 73. Dexamethasone, an anti-inflammatory agent, was administered by intraperitoneal injection at 2.5 mg/kg on days 47, 62, 73, 74 and 75. Analysis of endpoints was performed on day 76, except cytokines which were evaluated on day 62, 6 hours post OVA challenge. Endpoints were similar to those in the acute and rechallenge model, and included Penh (AHR), BAL inflammatory cell accumulation and cytokines and mucus accumulation.

For “ISIS 231894: lead antisense oligonucleotide targeted to mouse IL-4R alpha; CCGCTGTTCTCAGGTGACAT; SEQ ID NO: 24; 2'-MOE gapmer, phosphorothioate (all phosphorothioate, sugars by position and methylation of C not given here; 2'-MOE gapmer)”, the “percentage of eosinophils in BAL fluid vs mismatch control, in words” value (OVA sensitized mice [1]) was “significantly reduced”, the “lung IL-5 mRNA, in words” value (OVA sensitized mice [1]; 10 μg and 100 μg doses) was “inhibited” and the “% Eosinophils (BAL)” value (OVA sensitized mice [1]; 10 μg/kg inhaled) was 22%. The “Penh (100 mg/mL methacholine)” value (OVA sensitized mice [1]; 10 μg/kg inhaled) was 3, the “% Eosinophils (BAL)” value (OVA sensitized mice [1]; 100 μg/kg inhaled) was 18% and the “Penh (100 mg/mL methacholine)” value (OVA sensitized mice [1]; 100 μg/kg inhaled) was 3.5. The “% Eosinophils (BAL)” value (OVA sensitized mice [1]; 500 μg/kg inhaled) was 15%, the “Penh (100 mg/mL methacholine)” value (OVA sensitized mice [1]; 500 μg/kg inhaled) was 3.5 and the “methacholine-induced AHR (Penh) vs vehicle control, in words” value (OVA sensitized mice [1]; all three doses (10, 100, 500 μg/kg)) was “significant reduction”. For the same substance, the “cytokines KC, MCP-1, IL-5 and IL-13 in BAL fluid vs vehicle control, in words” value (OVA sensitized mice [1]; doses of 100 μg and 500 μg, ELISA) was “significantly reduced expression”, the “% Eosinophils (BAL)” value (OVA sensitized mice [2]; 5 μg/kg inhaled) was 45% and the “% Neutrophils (BAL)” value (OVA sensitized mice [2]; 5 μg/kg inhaled) was 38%. The “% Eosinophils (BAL)” value (OVA sensitized mice [2]; 500 μg/kg inhaled) was 29%, the “% Neutrophils (BAL)” value (OVA sensitized mice [2]; 500 μg/kg inhaled) was 35% and the “percent of eosinophils in BAL fluid vs vehicle control, in words” value (OVA sensitized mice [2]; ISIS 231894 500 μg/kg, dexamethasone 2.5 mg/kg ip) was “significant decrease”. The “methacholine-induced AHR (Penh) vs vehicle, in words” value (OVA sensitized mice [2]; ISIS 231894 each dose (5, 500 μg/kg), dexamethasone 2.5 mg/kg ip) was “significant decrease”, the “percent neutrophils in BAL, in words” value (OVA sensitized mice [2]; both doses of ISIS 231894, dexamethasone 2.5 mg/kg ip) was “significantly reduced” and the “IL-5 and KC in BAL fluid vs vehicle, in words” value (OVA sensitized mice [2]; day 62, ISIS 231894 500 μg/kg, dexamethasone 2.5 mg/kg ip) was “significant reduction”.
